Where a SMILES comes first, the peptide text is derived from it. Where no end group is shown, it is not given here. [ ]: non-standard residue; d: D form. pS = N[C@@H](COP(=O)(O)O)C(=O)O
How the values were obtained:
[1] = biological target: T1, Importin-β (Homo sapiens, UniProt Q14974); experiment: Isothermal titration calorimetry (ITC), Importin-β; type: binding; settings: for ITC profile (exothermic / endothermic): 25 °C
T1 construct: GST (N, cleaved yes); made in house; host or cells: Escherichia coli Rosetta
Description: Homo sapiens GM130 (a.a. 1–48), GM130 (a.a. 1–85), and Importin-β were amplified by PCR and ligated into pGEX-6P-1 (GE Healthcare). H. sapiens full-length Importin-α and Mus musculus Importin-α were amplified by PCR and ligated into modified pGEX-6P-1 (GE Healthcare) that produces proteins with 6-His at the C–terminus. Mouse Importin-α shares ~95% identity with human Importin-α over the full protein sequence, so we used the former for biochemical and structural studies. GM130-S25D (a.a. 1–48), GM130-S25D (a.a. 1–85), GM130-S25D/K14A (a.a. 1–85), and GM130-S25D/K34A (a.a. 1–85) mutants were created by PCR-based mutagenesis and were verified by sequencing. A list of primer sequences used in this study is shown in Supplementary Table 1.
Binding affinities of different GM130 proteins to Importin-α and Importin-β were measured by ITC (MicroCal iTC200). All proteins were dialyzed against ITC buffer (20 mM HEPES pH 7.4, 1 mM DTT) with either 50 or 200 mM NaCl. Protein concentrations were determined spectrophotometrically with respective extinction coefficients. ITC was performed at 25 °C. The respective heat changes were fitted using a one-sites binding model.

[2] = biological target: T1, Importin-β; experiment: Size exclusion chromatography co-migration with Importin-β; type: binding; settings: Superdex 200, 20 mM HEPES pH 7.4, 50 mM NaCl, 3 mM DTT, 1:1
Experimental: Fig. 4 Ran and a phosphate moiety repress GM130 and Importin-β interaction. a SEC (Superdex 200) elution profiles for the Importin-β•GST-GM130-WT complex (black line), Importin-β (gray line), and GST-GM130-WT (light gray line). The void volume (Vo) is indicated. b–d The peak fractions of the Importin-β•GST-GM130-WT complex (b), Importin-β (c), and GST-GM130-WT (d) were analyzed by SDS–PAGE and stained with Coomassie blue. e, f ITC titration curves (upper) and binding isotherms (lower) of Importin-β with GM130-NLS WT (e) and GM130-NLS phospho-S25 (f). Kd values are indicated. g Competition binding assay. GST-GM130-S25D and Importin-β were incubated with indicated concentrations of GFP-IBB. Samples pulled down by GST beads were analyzed by SDS–PAGE and stained with Coomassie blue. […] GST-bound samples were analyzed by SDS–PAGE and stained with Coomassie blue. i, k Band intensities of Importin-α or Importin-β from the SDS–PAGE gels in h, j were used to determine averages of bound protein. […]
GST-GM130-WT and GST-GM130-S25D were, respectively, incubated with Importin-β or Importin-α FL in a molar ratio of 1:1. […] Peak fractions were analyzed by SDS–PAGE.

[3] = system: p115 associated with GM130; experiment: Immuno-precipitation of p115 with GM130 antibody, RO-3306-treated nocodazole-arrested HEK293T cells; type: cell-based; settings: RO-3306-treated vs untreated, 10 µM/ml, 2 h; three independent experiments
Experimental: (§1) To pull down endogenous GM130, HEK293T cells were synchronized via nocodazole treatment and lysed in a buffer containing 50 mM Tris–HCl (pH 7.4), 150 mM NaCl, 1 mM EDTA, 10% glycerol, 1% Triton, 0.15% SDS, protease inhibitor cocktail (Roche), and 1 mM PMSF. Clarified lysates were pre-incubated with GM130 antibody (Abcam ab52649) for 12 h at 4 °C, followed by one hour incubation with IgG sepharose^TM 6 Fast Flow (GE Healthcare). Beads were then washed three times with buffer (20 mM HEPES pH 7.4, 150 mM NaCl, 1.5 mM MgCl2, 10% glycerol, 0.1% Triton). Protein samples were boiled in SDS sample buffer and analyzed by SDS–PAGE, followed by Western blotting analysis.
(§2) To prepare Cdk1 inhibitor treated lysates for GM130 pull-down assays, WT HEK293T cells were synchronized by 30 µM of nocodazole for 13 h, followed by treatment of Cdk1 inhibitor RO-3306 (10 µM/ml) (Sigma, cat#SML0569) for 2 h.
(§3) Sup ple me ntary Figu re 5. Cell-base d e xam ination of the K34A mutation of G M130. a, Representative fluorescent images of w ild-type and two K34A mutant cell lines at metaphase.
(§4) Sca le b a r : 1 0 µm. b, Images of nocodaz o le-ar r e st ed H EK 2 9 3 T ce ll s without (left) and w ith (right) RO-3306 treatment acquired by bright-field illum ination. Sc ale ba r: […]

[4] = system: Cdk1; settings: 1-h RO-3306 treatment; ref [23]; cited from earlier work
[5] = system: Importin-α associated with GM130; experiment: Immuno-precipitation of Importin-α with GM130 antibody, RO-3306-treated nocodazole-arrested HEK293T cells; type: cell-based; settings: RO-3306-treated vs untreated, 10 µM/ml, 2 h; three independent experiments
Experimental: as §1, §2, §3, §4

[6] = biological target: T2, Importin-α(ΔIBB) (a.a. 70–524) (Mus musculus, UniProt P52293); experiment: Isothermal titration calorimetry (ITC), Importin-α(ΔIBB); type: binding; settings: 200 mM NaCl
T2 construct: Importin-α lacking the IBB domain (a.a. 70–524; hereafter Importin-α(ΔIBB)); GST (N); made in house; host or cells: Escherichia coli Rosetta
Description: Phosphorylation of GM130 on Ser-25 is correlated with p115 dissociation, with this process appearing to be specific to mitosis and being responsible for reduction of p115-mediated vesicle fusion to Golgi membranes[5]–[7],[9],[10]. The N-terminal region of GM130 and the p115 C-terminus interact[11],[12], so we purified recombinant proteins containing these two regions and then assessed their binding affinity by isothermal titration calorimetry (ITC). The wild type GM130 N-terminal region (a.a. 1-85; hereafter GM130-WT) directly bound p115 (a.a. 780–930; hereafter p115-CTD) (Fig. 1a). Furthermore, we examined if GM130 phosphorylation reduces the binding affinity for p115. […] We found in competition-binding assays that p115-CTD pulldown by GST-GM130-S25D was reduced when we added increasing amounts of Importin-α lacking the IBB domain (a.a. 70–524; hereafter Importin-α(ΔIBB)) (Fig. 1c). […] Therefore, we propose that binding of Importin-α to GM130 could be primarily responsbile for preventing interaction between p115 and GM130 during mitosis.
Homo sapiens GM130 (a.a. 1–48), GM130 (a.a. 1–85), and Importin-β were amplified by PCR and ligated into pGEX-6P-1 (GE Healthcare). […]
Binding affinities of different GM130 proteins to Importin-α and Importin-β were measured by ITC (MicroCal iTC200). […] Protein concentrations were determined spectrophotometrically with respective extinction coefficients. […]

T1 sequence (Q14974 whole entry): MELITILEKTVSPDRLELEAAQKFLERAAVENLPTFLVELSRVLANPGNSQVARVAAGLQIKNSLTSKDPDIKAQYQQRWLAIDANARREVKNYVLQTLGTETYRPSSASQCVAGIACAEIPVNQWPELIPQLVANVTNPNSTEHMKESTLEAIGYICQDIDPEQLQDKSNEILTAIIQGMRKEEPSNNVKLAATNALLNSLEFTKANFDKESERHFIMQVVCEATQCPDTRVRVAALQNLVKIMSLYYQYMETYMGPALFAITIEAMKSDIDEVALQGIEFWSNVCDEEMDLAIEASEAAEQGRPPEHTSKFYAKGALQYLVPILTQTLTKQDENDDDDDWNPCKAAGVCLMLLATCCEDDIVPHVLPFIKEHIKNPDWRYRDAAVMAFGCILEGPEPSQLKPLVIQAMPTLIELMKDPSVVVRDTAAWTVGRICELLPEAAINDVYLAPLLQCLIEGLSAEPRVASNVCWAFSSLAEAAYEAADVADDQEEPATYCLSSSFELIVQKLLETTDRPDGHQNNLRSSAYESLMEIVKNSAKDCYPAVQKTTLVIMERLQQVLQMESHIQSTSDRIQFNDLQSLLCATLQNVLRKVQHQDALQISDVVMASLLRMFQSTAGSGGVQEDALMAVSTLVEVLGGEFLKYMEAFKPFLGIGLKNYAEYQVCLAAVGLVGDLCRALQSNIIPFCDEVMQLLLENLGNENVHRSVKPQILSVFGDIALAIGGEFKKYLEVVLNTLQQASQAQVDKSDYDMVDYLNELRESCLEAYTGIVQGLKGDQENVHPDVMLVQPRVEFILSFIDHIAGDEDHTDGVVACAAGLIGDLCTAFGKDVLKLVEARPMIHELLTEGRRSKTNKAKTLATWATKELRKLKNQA

Row | Compound | ITC profile (exothermic / endothermic) [1] | co-migration with Importin-β by SEC [2] | p115 pulldown by GM130 [3] | block of Cdk1 activity [4] | morphological transition [4] | Importin-α pulldown by GM130 [5] | binding constant relative to wild-type GM130 peptide ([1]; relative to wild-type GM130 peptide) | binding affinity for Importin-α(ΔIBB) vs wild type [6]
1 | AKKKLREYQQRNSPGVPTGAKKKKKIK [GM130-NLS WT] | exothermic profile | co-migration |  |  |  |  |  | 
2 | O=C1NC(=NCc2cccs2)S/C1=C\c1ccc2ncccc2c1 [RO-3306] |  |  | enhanced | sufficient to block Cdk1 activity | morphological transition from rounded mitotic cells to a flat interphase shape | reduced |  | 
3 | CC[C@H](C)[C@H](NC(=O)[C@H](CCCCN)NC(=O)[C@H](CCCCN)NC(=O)[C@H](CCCCN)NC(=O)[C@H](CCCCN)NC(=O)[C@H](CCCCN)NC(=O)[C@H](C)NC(=O)CNC(=O)[C@@H](NC(=O)[C@@H]1CCCN1C(=O)[C@@H](NC(=O)CNC(=O)[C@@H]1CCCN1C(=O)[C@H](COP(=O)(O)O)NC(=O)[C@H](CC(N)=O)NC(=O)[C@H](CCCNC(=N)N)NC(=O)[C@H](CCC(N)=O)NC(=O)[C@H](CCC(N)=O)NC(=O)[C@H](Cc1ccc(O)cc1)NC(=O)[C@H](CCC(=O)O)NC(=O)[C@H](CCCNC(=N)N)NC(=O)[C@H](CC(C)C)NC(=O)[C@H](CCCCN)NC(=O)[C@H](CCCCN)NC(=O)[C@H](CCCCN)NC(=O)[C@H](C)N)C(C)C)[C@@H](C)O)C(=O)N[C@@H](CCCCN)C(=O)N[C@@H](CC(N)=O)C(=O)O [GM130-NLS phospho-S25] (H-AKKKLREYQQRN[pS]PGVPTGAKKKKKIKN-OH; N-terminus and C-terminus assumed) | endothermic curve |  |  |  |  |  | at least three orders of magnitude lower | better binding affinities
